From publication PMC10135964, “One Scaffold, Two Conformations: The Ring-Flip of the Messenger InsP8 Occurs under Cytosolic Conditions” (Biomolecules, 2023)
“Also recorded” adds a separate entry of the source. Where two headings read alike, the source gives them in different places.

Key:
[1] = biological target: T1, yeast VTC2 SPX domain (residues 1–182) (Saccharomyces cerevisiae, UniProt P43585); assay: Isothermal titration calorimetry of InsP8 binding to the VTC2 SPX domain; conditions: 25 °C, pH 7.4, 150 mM KCl, 40 mM NaCl, mean of three replicates; for Kd: read-out: dissociation constant Kd
T1 construct: The VTC2 SPX domain (residues 1–182) was expressed with a C-terminal His6-tag; His6 (C); made in house
T1 sequence (P43585 1-182): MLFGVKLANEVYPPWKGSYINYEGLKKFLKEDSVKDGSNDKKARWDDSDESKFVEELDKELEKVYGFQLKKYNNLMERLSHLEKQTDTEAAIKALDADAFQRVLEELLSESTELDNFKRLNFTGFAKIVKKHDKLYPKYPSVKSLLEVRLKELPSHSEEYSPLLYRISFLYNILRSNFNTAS
Experimental: The VTC2 SPX domain (residues 1–182) was expressed with a C-terminal His6-tag and purified by Ni-affinity and size-exclusion chromatography, as previously published.
Protein stocks were diluted to 300 µL with final buffer conditions: 25 mM HEPES pH 7.4, 150 mM KCl, 40 mM NaCl, 0.5 mM TCEP (ITC buffer). The exact protein concentration for each replicate was determined separately by Bradford assay. InsP8 was diluted to 500 µM in ITC buffer. For binding experiments in the presence of magnesium ions, both dilution buffers were supplemented with MgCl2 to give a final concentration of 1 mM after dilution.
ITC experiments were carried out at 25 °C in a MicroCal PEAQ-ITC calorimeter (Malvern Panalytical GmbH, Kassel, Germany), with ca. 50 µM protein in the cell and 500 µM ligand in the syringe. InsP8 was titrated into the solution in nineteen 2 µL-steps. Spacing between injections was 150 s.
The corresponding instrument software (MicroCal PEAQ-ITC Analysis) was used for baseline correction, peak integration, data fitting and determination of binding parameters.

[2] = 1H,13C BIRD-HMQC NMR quantification of axial vs. equatorial conformer; assay type: physicochemical; conditions: pH* 7.5, 5 equiv. Ca2+, 130 mM KCl, 10 mM NaCl
[3] = as above; assay type: physicochemical; conditions: 50 µM, 130 mM KCl, 10 mM NaCl, 4 °C
Experimental: Samples for HMQC-NMR studies contained 50 µM ^13C6-labeled InsPs (InsP6/5PP-InsP5/InsP8), 2 mM bis-tris-propane, 130 mM KCl, 10 mM NaCl and 0/50/250 µM MgCl2 in D2O.
BIRD-HMQC NMR spectra were recorded at 277 K and 600 MHz (^1H frequency) on a Bruker AV-III NMR spectrometer (Bruker Biospin, Rheinstetten, Germany) using cryogenically cooled 5 mm QCI-triple resonance probe equipped with one-axis self-shielded gradients. The spectrometer was operated using topspin 3.5 pl6 software. Instrument temperature was calibrated against […] according to Findeisen et al.. Acquisition parameters were SW(^13C): 60–90 ppm, NS: 128, TD(^13C): 64.
BIRD-HMQC spectra were recorded at 277 K as described above, with samples containing 200 µM InsPs, 130 mM KCl, 10 mM NaCl, 2mM BTP in D2O. pH was set to pH* 9.5 for InsP6, pH* 8.8 for 5PP-InsP5 and pH* 8.5 for InsP8 (pH = 0.929 × pH* + 0.42 [35]). NOESY-HMQC spectra of the same samples were subsequently recorded using mixing times of 80 ms for InsP6 and 5PP-InsP5 and 200 ms for InsP8. Conformational exchange on the time-scale of the experiment created cross-peaks between corresponding peaks in different conformations, which allowed us to assign each peak of the equatorial conformer to its axial counterpart.

[4] = Van't Hoff thermodynamic analysis of InsP8 conformational equilibrium; assay type: physicochemical; conditions: 10 mM NaCl; for ΔH^0 of eq. to ax. conformational transition / ΔS^0 of eq. to ax. conformational transition: 50 µM InsP8, pH* 7.5, 130 mM KCl
Experimental: BIRD-HMQC NMR spectra were recorded as described above, at 274–283 K in 1 K steps, two replicate samples per condition. Instrument temperature was calibrated against d4-methanol according to Findeisen et al..
Samples contained 50 µM InsP8, 5 mM HEPES pH* 7.5 (pH set on ice), 130 mM KCl, 10 mM NaCl, and either 100 µM or 250 µM MgCl2. Acquisition parameters were SW(^13C): 62–82 ppm, NS: 2048, TD(^13C): 16.
The best-isolated peaks (the 2-peak of ax. and 1-peak of eq. conformer) were integrated, subtracting 1PP-InsP5 impurities. The ax./eq. ratio (i.e., equilibrium constant K for the eq. to ax. transition) was plotted against 1/T, where T is temperature in Kelvin.
ΔH^0 and ΔS^0 were calculated from the regression line. Two replicates were combined for the linear regression.

ΔH of binding ([1]; 1 mM MgCl2): -5.9 kcal/mol
−TΔS of binding ([1]; 1 mM MgCl2): -3.3 kcal/mol
Kd ([1]; 1 mM MgCl2): 205 nM
ΔH of binding ([1]; without divalent ions): -3.5 kcal/mol
−TΔS of binding ([1]; without divalent ions): -5.2 kcal/mol
Kd ([1]; without divalent ions): 373 nM
proportion in axial conformation [2]: About 15%
proportion in axial conformation ([3]; pH* 7.5 (=pH 7.4), 1 equiv. Mg2+): about 10%
proportion in axial conformation ([3]; pH* 8.5, without divalent cations): about half
ΔH^0 of eq. to ax. conformational transition ([4]; 2 equiv. MgCl2, 274–283 K): -17.1 ± 2.1 kcal/mol
ΔS^0 of eq. to ax. conformational transition ([4]; 2 equiv. MgCl2, 274–283 K): −0.063 ± 0.008 kcal/(mol·K)
ΔH^0 of eq. to ax. conformational transition ([4]; 5 equiv. MgCl2, 274–283 K): -7.2 ± 1.9 kcal/mol
ΔS^0 of eq. to ax. conformational transition ([4]; 5 equiv. MgCl2, 274–283 K): −0.025 ± 0.007 kcal/(mol·K)
axial conformer estimated at 37 °C (Gibbs-Helmholtz equation) ([4]; 2 equiv. Mg2+, pH* 7.5, 130 mM KCl): about 2%
axial conformer predicted at 37 °C (310 K) ([4]; 5 equiv. Mg2+, pH* 7.5, 130 mM KCl): 29%
Compound: O=P(O)(O)O[C@@H]1[C@@H](OP(=O)(O)O)[C@H](OP(=O)(O)OP(=O)(O)O)[C@@H](OP(=O)(O)O)[C@H](OP(=O)(O)OP(=O)(O)O)[C@@H]1OP(=O)(O)O [InsP8, 1,5(PP)2-InsP4]
proportion in axial conformation ([3]; pH* 7.5, 5 equiv. Mg2+): about half; also recorded: almost equally distributed between its axial and equatorial forms
